From patent publication US20120177779A1, “FISH FEEDING STIMULANT AND PRODUCT” (priority 2008, published 2012)

Assays:
carp [1] = details: in vivo
Description: (§1) The data in FIG. 8 leads to several conclusions. […] Importantly, members of both the ‘A’ and ‘SP’ AA groups are NOT considered to be physiologically significant. […] Thus, as a direct consequence, it is strongly inferred that only AAs belonging to the ‘B’ and ‘LN’ groups are physiologically significant with regard to the fishes' ability to detect forage via the recognition of solvated AAs.

carp [2] = assay: Stimulatory response (average feeding time/fish) to VAL/LYS solutions, FIG. 8; type: in vivo
Description: FIG. 8 is a graph showing stimulatory response as a function of composition for mixtures of L-Valine (V) and L-Lysine (K).
The relationship between stimulatory response (as determined through average feeding time/fish) and AA ratio for a variety of net equimolar mixtures comprised of VAL (V) and LYS (K), as well as reference solutions containing the respective individual AAs is shown in FIG. 8.
as §1

[3] = physiological pH; cited from earlier work

N[C@@H](CO)C(=O)O [SER, serine]
physiological distress on exposure (carp [1]): signs of physiological distress

NC(=O)CC[C@H](N)C(=O)O [GLU, glutamine]
physiological distress on exposure (carp [1]): signs of physiological distress

NCCCC[C@H](N)C(=O)O [LYS, L-Lysine]
stimulatory response (average feeding time/fish) (carp [2]; net equimolar VAL/LYS mixtures and 0.5% single AA reference solutions): significantly enhanced stimulatory response

N[C@@H](Cc1c[nH]cn1)C(=O)O [L-Histidine]
fraction protonated [3]: approximately 10%

CC(C)[C@H](N)C(=O)O [VAL, L-Valine]
stimulatory response relative to that observed for a similar strength LYS solution (carp [2]; similar concentration (0.5%) solution): approximately 50%
